# In PubChem BioAssay AID1332 (Southern Research Institute, 2008):
# Starred links: 1 amine or outer side, 2 acyl side, 3 side chain; linkers in the order of their positions; H or OH if unused. Positions of bridges follow the written chain, without caps; N, C: chain ends. Non-standard residues stand in square brackets, D forms with d. Residues, ends and D or L forms follow the SMILES beside them. *: point of attachment. X2 = NC1=N[C@@H]([C@H](N[*:1])C(=O)[*:2])C[C@H](O)N1; ΔAla(Z-3-ureido) = NC(=O)N/C=C(\N)C(=O)O; β3hOrn = NCCC[C@H](N)CC(=O)*; Dap = NC[C@H](N)C(=O)O
# System: M. tuberculosis H37Rv growth inhibition
# Assay: Mycobacterium tuberculosis H37Rv growth inhibition, confirmatory dose response, cytotoxicity (AID 1332);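 note: bacteria incubated 7 days before adding Alamar blue readout reagent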
row,Structure (SMILES),IC90 [µg/mL]
1,CC[C@H]1OC(=O)[C@H](C)[C@@H](OC2C[C@@](C)(OC)[C@@H](O)[C@H](C)O2)[C@H](C)[C@@H](O[C@@H]2O[C@H](C)C[C@H](N(C)C)[C@H]2O)[C@](C)(O)C[C@@H](C)/C(=N\OCOCCOC)[C@H](C)[C@@H](O)[C@]1(C)O (some centres not stated),11.5
2,Cc1c(OCC(F)(F)F)ccnc1CS(=O)c1nc2ccccc2[nH]1 (configuration not stated),10.1
3,Cc1cc(C(C)(C)CC(C)(C)C)ccc1OCCOCC[N+](C)(C)Cc1ccccc1,4.91
4,CN1CCCC(CC2c3ccccc3Sc3ccccc32)C1 (configuration not stated),10.4
5,Cc1cc(C=Cc2ccc3cc(N(C)C)ccc3[n+]2C)c(C)n1-c1ccccc1,0.195
6,C1CCC(C(CC2CCCCN2)C2CCCCC2)CC1 (configuration not stated),1.99
7,Fc1ccc(C(c2ccc(F)cc2)N2CCN(C/C=C/c3ccccc3)CC2)cc1,6.62
8,CC(=O)N1CCN(c2ccc(OC[C@H]3CO[C@](Cn4ccnc4)(c4ccc(Cl)cc4Cl)O3)cc2)CC1,2.49
9,Clc1ccc(C(Cn2ccnc2)OCc2c(Cl)cccc2Cl)c(Cl)c1 (configuration not stated),2.51
10,Nc1ccc(S(=O)(=O)Nc2nccs2)cc1,1.3
11,Nc1ccc(S(=O)(=O)Nc2ccnn2-c2ccccc2)cc1,12.8
12,CNCCC=C1c2ccccc2CCc2ccccc21,16.8
13,COc1ccc(C[C@H](N)C(=O)N[C@H]2[C@@H](O)[C@H](n3cnc4c(N(C)C)ncnc43)O[C@@H]2CO)cc1,1.75
14,O=c1[nH]c2ccccc2n1C1CCN(CCCC(c2ccc(F)cc2)c2ccc(F)cc2)CC1,2.34
15,COc1ccc(CCN2CCC(Nc3nc4ccccc4n3Cc3ccc(F)cc3)CC2)cc1,6.79
16,OCCN1CCN(CC/C=C2/c3ccccc3Sc3ccc(C(F)(F)F)cc32)CC1,5.46
17,CC[C@H](CO)NCCN[C@H](CC)CO,0.191
18,N[C@@H]1CONC1=O,1.05
19,Oc1c(I)cc(Cl)c2cccnc12,0.482
20,O=C(N[C@H](CO)[C@H](O)c1ccc([N+](=O)[O-])cc1)C(Cl)Cl,1.06
21,CN[C@@H]1[C@H](O[C@H]2[C@H](O[C@@H]3[C@@H](O)[C@H](O)[C@@H](N=C(N)N)[C@H](O)[C@H]3N=C(N)N)O[C@@H](C)[C@]2(O)C=O)O[C@@H](CO)[C@H](O)[C@H]1O,1.11
22,CC(C)N1CCN(c2ccc(OC[C@H]3CO[C@](Cn4cncn4)(c4ccc(Cl)cc4Cl)O3)cc2)CC1,7.54
23,O=c1c2ccccc2[se]n1-c1ccccc1,2.16
24,OCCN1CCN(CCCN2c3ccccc3Sc3ccc(Cl)cc32)CC1,11.7

row,Structure (SMILES),IC90 [µg/mL]
1,CNc1ncnc2c1ncn2[C@@H]1O[C@H](CO)[C@@H](O)[C@H]1O,0.822
2,CO[C@H]1/C=C/O[C@@]2(C)Oc3c(C)c(O)c4c(O)c(c(/C=N/N5CCN(C)CC5)c(O)c4c3C2=O)NC(=O)/C(C)=C\C=C\[C@H](C)[C@H](O)[C@@H](C)[C@@H](O)[C@@H](C)[C@H](OC(C)=O)[C@@H]1C,0.04
3,O=C(N/N=C/c1ccc([N+](=O)[O-])o1)c1ccc(O)cc1,1.54
4,CSc1ccc2c(c1)N(CCC1CCCCN1C)c1ccccc1S2 (configuration not stated),3.01
5,CC(NCCC(c1ccccc1)c1ccccc1)c1ccccc1 (configuration not stated),8.02
6,CCCCN(CCCC)CCC(O)c1cc2c(Cl)cc(Cl)cc2c2cc(C(F)(F)F)ccc12 (configuration not stated),1.15
7,NC[C@H]1O[C@H](O[C@H]2[C@H](O)[C@@H](O[C@H]3O[C@H](CO)[C@@H](O)[C@H](N)[C@H]3O)[C@H](N)C[C@@H]2N)[C@H](N)C[C@@H]1O,1.94
8,OCCN1CCN(CCCN2c3ccccc3Sc3ccc(C(F)(F)F)cc32)CC1,7.59
9,CC(C)(C)c1ccc(C(O)CCCN2CCC(C(O)(c3ccccc3)c3ccccc3)CC2)cc1 (configuration not stated),1.61
10,CCN(CC)C(=S)SSC(=S)N(CC)CC,0.164
11,CC/C(=C(\c1ccccc1)c1ccc(OCCN(C)C)cc1)c1ccccc1,13.6
12,CCn1cc(C(=O)O)c(=O)c2cc(F)c(N3CCNCC3)nc21,4.1
13,NCCC[C@H](N)CC(=O)N[C@H]1CNC(=O)[C@H]([C@H]2C[C@H](O)NC(N)=N2)NC(=O)/C(=C/NC(N)=O)NC(=O)[C@H](CO)NC(=O)[C@H](CO)NC1=O (β3hOrn-[Dap]SS[ΔAla(Z-3-ureido)][X2]; lactam 1-C),0.069
14,CCC(C)N1CCC2(CC1)N=c1c(c3c4c5c(C)c(O)c3c(O)c1=NC(=O)/C(C)=C/C=C/[C@H](C)[C@H](O)[C@@H](C)[C@@H](O)[C@@H](C)[C@H](OC(C)=O)[C@H](C)[C@@H](OC)/C=C/O[C@@](C)(O5)C4=O)N2 (some centres not stated),0.04
15,CCCCCCC[N+](CC)(CC)CCCCc1ccc(Cl)cc1,15.6
16,CNCCCC12CCC(c3ccccc31)c1ccccc12,17.9
17,Cc1c2ccncc2c(C)c2c1[nH]c1ccccc12,0.17
18,N[C@@H](C(=O)N[C@@H]1C(=O)N2C(C(=O)O)=C(Cl)CS[C@H]12)c1ccccc1,11.3
19,O=C(O)c1cn(C2CC2)c2cc(N3CCNCC3)c(F)cc2c1=O,0.042
20,N=C(N)c1ccc(OCCCCCOc2ccc(C(=N)N)cc2)cc1,1.68
21,Nc1ccc(S(=O)(=O)Nc2cnc3ccccc3n2)cc1,12.7
22,Clc1ccc(CSC(Cn2ccnc2)c2ccc(Cl)cc2Cl)cc1 (configuration not stated),2.53
23,COc1cc(NS(=O)(=O)c2ccc(N)cc2)ncn1,3.78
